The values that follow come from ChEMBL document CHEMBL4316625, “Double prodrugs of a fosmidomycin surrogate as antimalarial and antitubercular agents” (Bioorg Med Chem Lett, 2019).

The test has as its system Mycobacterium tuberculosis. Kind of test: Antitubercular activity against Mycobacterium tuberculosis H37Ra ATCC 25177 transformed with pSMT1 luciferase reporter plasmid reduction in bacterial multiplication incubated for 7 days by luminometric assay. It is filed as functional, organism-based. The conditions noted are these: H37Ra ATCC 25177, 168 h.

As a reminder, the MIC is the smallest concentration in the dilution series that meets the test's criterion for growth inhibition. In turn, `CN(OC(=O)Nc1ccccc1)C(=O)CCCP(=O)(OCOC(=O)C(C)(C)C)OCOC(=O)C(C)(C)C` registered an MIC greater than 64 µM.

`CC(=O)ON(C)C(=O)CCCP(=O)(OCOC(=O)C(C)(C)C)OCOC(=O)C(C)(C)C` displayed an MIC greater than 64 µM.
